Measured values: publication PMC4705983, “Structural Dissection of the Maltodextrin Disproportionation Cycle of the Arabidopsis Plastidial Disproportionating Enzyme 1 (DPE1)” (The Journal of Biological Chemistry, 2015)

What was measured:
[1] = biological target: T1, AtDPE1 (disproportionating enzyme 1) (Arabidopsis thaliana, UniProt Q9LV91); assay: turnover in crystal (transglycosylation during soak), X-ray crystallography; format: biochemical; conditions: 10 mM soak, pH 8.0; intact maltotriose not seen, longer malto-oligosaccharide bound
T1 construct: gene DPE1; residues 46-576, transit peptide removed, N-terminal His6 tag kept (pET151/D-TOPO), homodimer
T1 sequence (Q9LV91 46-576): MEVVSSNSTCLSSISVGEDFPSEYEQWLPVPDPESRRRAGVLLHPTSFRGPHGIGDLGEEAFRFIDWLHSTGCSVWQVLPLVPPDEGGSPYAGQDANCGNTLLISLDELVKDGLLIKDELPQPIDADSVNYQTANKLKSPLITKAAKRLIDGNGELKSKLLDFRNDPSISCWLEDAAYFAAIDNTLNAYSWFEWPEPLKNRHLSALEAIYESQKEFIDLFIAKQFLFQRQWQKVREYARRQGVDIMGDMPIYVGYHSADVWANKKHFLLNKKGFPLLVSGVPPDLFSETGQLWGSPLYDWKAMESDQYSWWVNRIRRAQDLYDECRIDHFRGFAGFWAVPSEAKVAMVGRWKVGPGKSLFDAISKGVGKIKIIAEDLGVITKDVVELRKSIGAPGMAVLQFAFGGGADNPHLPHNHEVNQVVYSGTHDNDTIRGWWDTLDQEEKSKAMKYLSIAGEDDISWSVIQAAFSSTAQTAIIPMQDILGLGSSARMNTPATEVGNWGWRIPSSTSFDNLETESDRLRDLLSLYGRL

[2] = biological target: T1, AtDPE1 (disproportionating enzyme 1); assay: X-ray crystallography, crystal soak; format: biochemical; conditions: covalent; 10 mM soak, pH 8.0; only the maltosyl unit (subsites -2, -1) linked to Asp-373 seen, from slow cleavage; 2.30 Å

## OC[C@H]1O[C@H](O[C@H]2[C@H](O)[C@@H](O)[C@@H](O[C@H]3[C@H](O)[C@@H](O)C(O)O[C@@H]3CO)O[C@@H]2CO)[C@H](O)[C@@H](O)[C@@H]1O (some centres unmarked) [MA3, maltotriose]
[1]
  turnover in crystal (transglycosylation during soak), X-ray crystallography: malto-oligosaccharide in each active site, indicative of transglycosylation reactions occurring during crystal soaking

## OC[C@H]1O[C@@H]2O[C@H]3[C@H](O)[C@@H](O)[C@@H](O[C@H]4[C@H](O)[C@@H](O)[C@@H](O[C@H]5[C@H](O)[C@@H](O)[C@@H](O[C@H]6[C@H](O)[C@@H](O)[C@@H](O[C@H]7[C@H](O)[C@@H](O)[C@@H](O[C@H]8[C@H](O)[C@@H](O)[C@@H](O[C@H]1[C@H](O)[C@H]2O)O[C@@H]8CO)O[C@@H]7CO)O[C@@H]6CO)O[C@@H]5CO)O[C@@H]4CO)O[C@@H]3CO [BCD, β-cyclodextrin]
[2]
  X-ray crystallography, crystal soak: The covalently bound donor most likely resulted from a slow hydrolysis of β-cyclodextrin
